Measurements reported in patent US20070270418A1, “Inhibitors of P38 and Methods of Using the Same” (priority 2003, published 2007).

tested on: TNFα release from THP-1 cells; test: TNFα release from LPS-stimulated THP-1 cells; assay type: cell-based; details: Homo sapiens, THP-1, 18 h, LPS 10 μg/ml, 18 hours; read-out: TNFα (THP-1) IC50
Description: Compounds of the invention are screened for the ability to inhibit TNFα and IL-1β release from THP-1 cells stimulated with lipopolysaccharide (LPS) in vitro. The ability of compounds to inhibit TNFα and IL-1β release in this in vitro assay is correlated with the inhibition of p38 activity and TNFα and IL-1β expression in vivo, and is therefore an indicator of potential in vivo therapeutic activity (Lee J. C. et al, Ann. N.Y. Acad. Sci. 696: 149-170, 1993 and Nature, 372: 739-746, 1994).
THP-1 cells from ATCC (TIB202) are maintained at 37° C., 5% CO2 in RPMI 1640 media (MediaTech, Herndon, Va.) containing 4.5 g/L glucose, supplemented with 10% fetal bovine serum, 1% penicillin/streptomycin and 50 μM β-mercaptoethanol.
Test compounds are initially dissolved in RPMI media with 1% DMSO (v/v). Compounds are then serially diluted in RPMI media for all subsequent dilutions. The assay is performed under sterile conditions. THP-1 cells at a culture density of 6-8×10^5 cells/ml are collected and resuspended in the RPMI media at 10^6 cells/ml. 100 μl of resuspended cells are added to each well, which contain 100 μl of a test compound. Test compounds are prepared at twice the final concentration. Final DMSO concentration is no more than 0.5% (v/v). Cells are preincubated with compound for 30 minutes at 37° C., 5% CO2 prior to stimulation with lipopolysaccharide (LPS) (Sigma L-2880, 4 mg/ml stock in PBS). The final LPS concentration in each well is 10 or 30 μg/ml for TNFα and IL-1β release, respectively. Unstimulated control cell suspensions receive PBS vehicle only. Cell mixtures are incubated for 18 or 48 hours for TNFα and IL-1β release, respectively. 150 μl of supernatants are taken and transferred to a fresh plate and stored at −20° C. until further analysis.

IC50 | Structure (SMILES)
101 nM | CC(C)[C@@H](CO)Nc1nccc(-c2c(-c3ccc(Br)cc3)nc3sccn23)n1 [CCI]
345 nM | Fc1ccc(CN2CCC(Nc3nccc(-c4c(-c5ccc(F)cc5)nc5sccn45)n3)CC2)cc1 [CCLIV]
643 nM | Fc1ccc(-c2nc3sccn3c2-c2ccnc(NCCN3CCN(Cc4ccccc4)CC3)n2)cc1 [CCLVIII]
23.3 nM | CC(C)(CNC(=O)OC(C)(C)C)CNc1nccc(-c2c(-c3ccc(F)cc3)nc3sccn23)n1 [CCLXIII]
27.5 nM | CC(C)(C)OC(=O)N1CCCC1CNc1nccc(-c2c(-c3ccc(F)cc3)nc3sccn23)n1 (centres unmarked) [CCLXIV]
3.08 nM | CS(=O)(=O)N1CCC(Nc2nccc(-c3c(-c4ccc(F)cc4)nc4sccn34)n2)CC1 [CCLXI]
88.4 nM | CN(C)CC(C)(C)CNc1nccc(-c2c(-c3ccccc3Cl)nc3occn23)n1 [CCLXXXII]
96.2 nM | CC(C)(C)OC(=O)N1CCC(Nc2nccc(-c3c(-c4ccc(F)cc4Cl)nc4occn34)n2)CC1 [CCLXXXIV]
170 nM | CC(C)(C)OC(=O)N1CCC(Nc2nccc(-c3c(-c4ccccc4Cl)nc4occn34)n2)CC1 [CCLXXXVII]
9.9 nM | Fc1ccc(-c2nc3occn3c2-c2ccnc(NC3CCNCC3)n2)c(F)c1 [CCLXXXV]

Second part, the molecule before the results:

Structure (SMILES) | IC50
CC(=O)N1CCC(Nc2nccc(-c3c(-c4ccc(F)cc4)nc4sccn34)n2)CC1 [CCLIII] | 6.27 nM
O=C(c1ccc(F)cc1)N1CCC(Nc2nccc(-c3c(-c4ccc(F)cc4)nc4sccn34)n2)CC1 [CCLII] | 21.9 nM
C[C@@H](Nc1nccc(-c2c(-c3ccc(F)cc3)nc3sccn23)n1)C(N)=O [CCLIX] | 47.7 nM
OC(CNc1nccc(-c2c(-c3ccc(F)cc3)nc3sccn23)n1)COc1ccccc1 (centres unmarked) [CCLI] | 84.9 nM
CC(CN(C)C)Nc1nccc(-c2c(-c3ccc(F)cc3)nc3sccn23)n1 (centres unmarked) [CCLVII] | 38.6 nM
O=C(Nc1ccc(F)cc1)N1CCC(Nc2nccc(-c3c(-c4ccc(F)cc4)nc4sccn34)n2)CC1 [CCLVI] | 9.68 nM
CCNC(=O)N1CCC(Nc2nccc(-c3c(-c4ccc(F)cc4)nc4sccn34)n2)CC1 [CCLV] | 10.8 nM
CC(C)(C)OC(=O)N1CCCC(Nc2nccc(-c3c(-c4ccc(F)cc4)nc4sccn34)n2)C1 (centres unmarked) [CCLXII] | 196 nM
CC(C)(C)OC(=O)N1CCC(Nc2nccc(-c3c(-c4ccc(F)cc4F)nc4occn34)n2)CC1 [CCLXXXIII] | 52.7 nM
Cc1ccccc1-c1nc2occn2c1-c1ccnc(NC2CCN(C(=O)OC(C)(C)C)CC2)n1 [CCLXXXVIII] | 211 nM
Fc1ccc(-c2nc3occn3c2-c2ccnc(NC3CCNCC3)n2)c(Cl)c1 [CCLXXXVI] | 67.3 nM
CC(C)(Nc1nccc(-c2c(-c3ccc(F)cc3)nc3sccn23)n1)C(O)c1ccccc1 (centres unmarked) [CCLX] | 213 nM

biological target: T1, p38α (Homo sapiens, UniProt Q16539); test: p38 MAP Kinase assay, ATF2 phosphorylation (ELISA); assay type: biochemical; details: 40 μM ATP
T1 construct: p38 MAP Kinases are recombinant human full-length proteins with an amino-terminal GST fusion; GST (N); purchased Upstate (Charlottesville, Va.); host or cells: E. coli
T1 sequence (Q16539 whole entry, the tested form may be a part): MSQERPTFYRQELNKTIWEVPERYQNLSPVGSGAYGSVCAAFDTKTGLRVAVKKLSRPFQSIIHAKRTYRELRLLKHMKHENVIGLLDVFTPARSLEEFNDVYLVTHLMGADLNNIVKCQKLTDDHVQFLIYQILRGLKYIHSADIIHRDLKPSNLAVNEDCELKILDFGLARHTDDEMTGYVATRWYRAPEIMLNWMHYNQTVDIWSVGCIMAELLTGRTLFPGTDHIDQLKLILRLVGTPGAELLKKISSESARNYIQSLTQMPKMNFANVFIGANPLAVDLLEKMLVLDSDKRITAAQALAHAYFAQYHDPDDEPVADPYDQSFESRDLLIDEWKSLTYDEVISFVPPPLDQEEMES
Description: Compounds of the invention are screened for the ability to inhibit ATF2 phosphorylation by p38 MAP Kinase in vitro. The ability of compounds to inhibit ATF2 phosphorylation in this in vitro assay is correlated with the inhibition of p38 MAP Kinase and TNFα expression in vivo, and is therefore an indicator of potential in vivo therapeutic activity (Raingeaud, J., et al, J. Biol. Chem., 270: 7420-7426, 1995, Brinkman, M. N., et al, J. Bil. Chem. 274: 30882-30886, 1999 and Fuchs, S. Y. et al, J. Biol. Chem. 275: 12560-12564, 2000).
All kinases and the substrate ATF2 are acquired from Upstate (Charlottesville, Va.). p38 MAP Kinases are recombinant human full-length proteins with an amino-terminal GST fusion, expressed in and purified from E. coli. ATF2 is a GST fusion protein containing amino acids 19-96 of human ATF2 expressed in E. coli. All proteins were aliquoted and stored at −80° C.
p38 MAP Kinase assays are performed using an assay buffer containing 25 mM HEPES, pH 7.5, 10 mM MgCl2, 2 mM DTT, 20 mM β-glycerophosphate, 0.1 mM Na3VO4, 40 μM ATP and 1.25 μM of ATF2, together with 6 ng of p38α protein, 12 ng p38β protein, 1.5 ng p38γ, or 0.4 ng JNK2α2. Compounds are serially diluted in DMSO and 2 μL of test compound at 25× final concentration is used. The vehicle control receives DMSO only. Test compounds are pre-incubated with 20 μl of enzyme in kinase buffer (25 mM HEPES, pH 7.5, 10 mM MgCl2, 2 mM DTT, 20 mM 3-glycerophosphate and 0.1 mM Na3VO4) at room temperature for 15 minutes. […] The reactions are incubated for 30 minutes at 37° C. and terminated by the addition of 18 μl of 200 mM EDTA. An ELISA method is used to measure the phosphorylation of ATF2 at Thr 69. High binding 96-well plates (Corning 3369) are coated with 50 μl of kinase reaction for 1 hour at 37° C. The coated plates are washed with 200 μl washing buffer (25 mM Tris HCl, pH 8.3, 192 mM glycine, 0.1% SDS and 0.05% Tween-20) three times. The plates are then washed three times with SuperBlock in TBS (Pierce, 37535). After blocking, plates are incubated with 50 μl of rabbit anti-phospho-ATF2 antibody (Cell Signaling, 9221 L, 1:500) for 30 minutes at 37° C. Plates are washed three times with washing buffer prior to incubation with 50 μl HRP-conjugated goat anti-rabbit antibody (Cell Signaling, 7074, 1:500) for 30 minutes at 37° C. Plates are then washed three times with washing buffer before incubation with 50 μl of Ultra TMB-ELISA (Pierce, 34028) for 8 minutes at room temperature. Finally, 50 μl of phosphoric acid (1 M) is added to stop reactions and plate absorbance is read at 450 nm on a SpectraMax 250 plate reader.

IC50 | Structure (SMILES)
75.7 nM | CC(C)[C@@H](CO)Nc1nccc(-c2c(-c3ccc(Br)cc3)nc3sccn23)n1 [CCI]
30.2 nM | Fc1ccc(CN2CCC(Nc3nccc(-c4c(-c5ccc(F)cc5)nc5sccn45)n3)CC2)cc1 [CCLIV]
57.7 nM | Fc1ccc(-c2nc3sccn3c2-c2ccnc(NCCN3CCN(Cc4ccccc4)CC3)n2)cc1 [CCLVIII]
5.85 nM | CC(C)(CNC(=O)OC(C)(C)C)CNc1nccc(-c2c(-c3ccc(F)cc3)nc3sccn23)n1 [CCLXIII]
7.26 nM | CC(C)(C)OC(=O)N1CCCC1CNc1nccc(-c2c(-c3ccc(F)cc3)nc3sccn23)n1 (centres unmarked) [CCLXIV]
1.31 nM | CS(=O)(=O)N1CCC(Nc2nccc(-c3c(-c4ccc(F)cc4)nc4sccn34)n2)CC1 [CCLXI]
44.8 nM | CN(C)CC(C)(C)CNc1nccc(-c2c(-c3ccccc3Cl)nc3occn23)n1 [CCLXXXII]
1.4 nM | CC(C)(C)OC(=O)N1CCC(Nc2nccc(-c3c(-c4ccc(F)cc4Cl)nc4occn34)n2)CC1 [CCLXXXIV]
8.2 nM | CC(C)(C)OC(=O)N1CCC(Nc2nccc(-c3c(-c4ccccc4Cl)nc4occn34)n2)CC1 [CCLXXXVII]
3.3 nM | Fc1ccc(-c2nc3occn3c2-c2ccnc(NC3CCNCC3)n2)c(F)c1 [CCLXXXV]

The remaining lines, values behind:

Structure (SMILES) | IC50
CC(=O)N1CCC(Nc2nccc(-c3c(-c4ccc(F)cc4)nc4sccn34)n2)CC1 [CCLIII] | 1.65 nM
O=C(c1ccc(F)cc1)N1CCC(Nc2nccc(-c3c(-c4ccc(F)cc4)nc4sccn34)n2)CC1 [CCLII] | 2.02 nM
C[C@@H](Nc1nccc(-c2c(-c3ccc(F)cc3)nc3sccn23)n1)C(N)=O [CCLIX] | 22.2 nM
OC(CNc1nccc(-c2c(-c3ccc(F)cc3)nc3sccn23)n1)COc1ccccc1 (centres unmarked) [CCLI] | 14.3 nM
CC(CN(C)C)Nc1nccc(-c2c(-c3ccc(F)cc3)nc3sccn23)n1 (centres unmarked) [CCLVII] | 25.4 nM
O=C(Nc1ccc(F)cc1)N1CCC(Nc2nccc(-c3c(-c4ccc(F)cc4)nc4sccn34)n2)CC1 [CCLVI] | 1.07 nM
CCNC(=O)N1CCC(Nc2nccc(-c3c(-c4ccc(F)cc4)nc4sccn34)n2)CC1 [CCLV] | 2.12 nM
CC(C)(C)OC(=O)N1CCCC(Nc2nccc(-c3c(-c4ccc(F)cc4)nc4sccn34)n2)C1 (centres unmarked) [CCLXII] | 29.8 nM
CC(C)(C)OC(=O)N1CCC(Nc2nccc(-c3c(-c4ccc(F)cc4F)nc4occn34)n2)CC1 [CCLXXXIII] | 1.1 nM
Cc1ccccc1-c1nc2occn2c1-c1ccnc(NC2CCN(C(=O)OC(C)(C)C)CC2)n1 [CCLXXXVIII] | 4.8 nM
Fc1ccc(-c2nc3occn3c2-c2ccnc(NC3CCNCC3)n2)c(Cl)c1 [CCLXXXVI] | 7 nM
CC(C)(Nc1nccc(-c2c(-c3ccc(F)cc3)nc3sccn23)n1)C(O)c1ccccc1 (centres unmarked) [CCLX] | 30 nM
